Measured values as given in US12410157B2, “Compound useful as toll-like receptor 7 activation inhibitor” (TOYAMA PREFECTURAL UNIVERSITY, priority 2020, dated 2025).

Target: T1, mouse TLR7 (Mus musculus, UniProt P58681)
T1 construct: expressed in transfected cells; host or cells: Ba/F3 cells (provided by Prof. Kensuke Miyake, University of Tokyo)
T1 sequence (P58681 27-1050): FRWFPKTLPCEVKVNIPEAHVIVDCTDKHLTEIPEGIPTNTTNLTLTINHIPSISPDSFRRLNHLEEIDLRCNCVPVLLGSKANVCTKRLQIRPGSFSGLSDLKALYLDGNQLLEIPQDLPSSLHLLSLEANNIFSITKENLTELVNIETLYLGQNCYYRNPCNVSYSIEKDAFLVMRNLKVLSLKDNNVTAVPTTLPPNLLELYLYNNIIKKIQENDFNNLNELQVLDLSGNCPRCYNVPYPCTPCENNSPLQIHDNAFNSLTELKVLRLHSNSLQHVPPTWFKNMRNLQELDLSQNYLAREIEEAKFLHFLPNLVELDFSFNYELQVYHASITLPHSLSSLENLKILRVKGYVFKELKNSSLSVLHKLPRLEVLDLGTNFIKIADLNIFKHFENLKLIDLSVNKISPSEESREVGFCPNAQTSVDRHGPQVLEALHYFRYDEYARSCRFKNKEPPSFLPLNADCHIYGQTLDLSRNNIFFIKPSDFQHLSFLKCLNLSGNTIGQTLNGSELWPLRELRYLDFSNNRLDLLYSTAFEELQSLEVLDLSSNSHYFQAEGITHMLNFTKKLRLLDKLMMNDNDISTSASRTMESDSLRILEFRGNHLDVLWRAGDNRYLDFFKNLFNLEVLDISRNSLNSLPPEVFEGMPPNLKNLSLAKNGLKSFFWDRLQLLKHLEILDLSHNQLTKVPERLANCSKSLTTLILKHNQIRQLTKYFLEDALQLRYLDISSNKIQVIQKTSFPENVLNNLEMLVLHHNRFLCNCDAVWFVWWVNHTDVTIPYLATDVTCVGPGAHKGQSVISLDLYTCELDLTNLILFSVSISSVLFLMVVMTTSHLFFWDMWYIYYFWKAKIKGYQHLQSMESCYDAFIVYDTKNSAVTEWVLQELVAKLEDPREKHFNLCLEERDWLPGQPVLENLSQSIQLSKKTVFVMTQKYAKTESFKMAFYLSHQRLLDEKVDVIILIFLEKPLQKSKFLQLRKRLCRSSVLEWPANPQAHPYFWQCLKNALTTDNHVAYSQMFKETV
Assay: Inhibition of TLR7 activation in mouse TLR7-expressing NF-κB-GFP reporter Ba/F3 cells
Type: cell-based
Conditions: Example 5, Table 5; method of Example 2; read-out: IC50
Source text: Mouse TLR7-expressing reporter cells (Ba/F3 cells) were used to evaluate inhibition of TLR7 activation in each derivative and CB-7. These cells were provided by Professor Kensuke Miyake (Department of Infection Genetics, Institute of Medical Science, University of Tokyo). These cells have been transfected with a reporter gene that connects GFP gene downstream of the promoter region of NF-κB. Therefore, the expression of GFP is enhanced by the addition of a ligand for TLR7 expressed by the cells. The fluorescence intensity of GFP was attenuated by the addition of each derivative, and the inhibition of TLR7 activation by each derivative was evaluated as an indicator.
Loxoribine (Alexis Biochemicals) was used as the ligand for mouse TLR7. Gardiquimod (Invivogen) was used as the ligand for human TLR7.
Ba/F3 cells cultured in RPMI 1640 medium containing 10% (v/v) fetal calf serum (FCS), 50 U/mL penicillin, 50 μg/mL streptomycin, 2 mM L-glutamine, […] 2-mercaptoethanol, 1 ng/mL interleukin-3 were aliquoted into 96-well plates so that the number of cells per well was 1.0×10^5 cells/100 μL. 50 μL of each derivative or CB-7, prepared to final concentrations of 1, 5, 10, 25, 50, and 100 µM, was added to each well. 96-well plates were incubated at 37° C. for 30 minutes in the presence of 5% CO2. Next, 250 μg/mL Roxoribin was added to each well and incubated for 18 hours. At the end of incubation, cells were washed with PBS (FACS buffer) containing 2.5% (v/v) FCS and suspended in 200 μL of FACS buffer containing 25 μg/mL […] for each cell. GFP fluorescence intensities of the cells were analyzed by flow cytometry. Flow cytometry measurement was performed on a FACSCanto™ II (Becton Dickinson) and data were analyzed with FlowJo software (Tree Star). The MFI (%) upon stimulation with roxoribin in the presence of […] derivatives or CB-7 was calculated using the MFI upon stimulation with roxoribin alone as 100%, and then IC50 (chemical compound concentration that inhibits activity by 50%) was calculated by logistic regression analysis.
The evaluation of the TLR7 activation inhibition by B2-24-4-5A·HCOOH was performed by the method described in Example 2. CB-7 and B2-24-4·HCl were used as controls.

Compound: C=C(C)[C@@H]1CC[C@]2(COC(=O)C2)C[C@H]1c1ccc(CN2CCNCC2)cc1 [B2-24-4-5A·HCOOH]
- IC50: 0.167 µM
